Measurements reported in PubChem BioAssay AID330 (DTP/NCI, 2004).
Several values for one entry are separate records, joined by “and”; a condition that tells them apart may be missing. Equal values may be shown once. Inconclusive results and toxic doses are left out.

Test system: P388 leukemia ip, CD2F1 mice, survival T/C
Experiment: NCI In Vivo Anticancer Drug Screen. Data for tumor model P388 Leukemia (intraperitoneal) in CD2F1 (CDF1) mice
Settings: endpoint: median survival time, higher = longer survival
Procedure, shortened: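 Mice carrying the transplanted tumor received test compound or vehicle. Survival was recorded in each group, and the value is the treated-group measurement divided by that of the vehicle-treated control group.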

[1] = dose: 50.0 mg/kg/injection, schedule: Q01DX005 (ip), vehicle: Klucel (hydroxypropylcellulose) (HPC)
[2] = dose: 100.0 mg/kg/injection, schedule: Q01DX005 (ip), vehicle: Klucel (hydroxypropylcellulose) (HPC)
[3] = dose: 200.0 mg/kg/injection, schedule: Q01DX005 (ip), vehicle: Klucel (hydroxypropylcellulose) (HPC)
[4] = dose: 6.25 mg/kg/injection, schedule: Q01DX009 (ip), vehicle: saline with Tween-80
[5] = dose: 12.5 mg/kg/injection, schedule: Q01DX009 (ip), vehicle: saline with Tween-80
[6] = dose: 50.0 mg/kg/injection, schedule: Q01DX005 (ip), vehicle: saline with Tween-80
[7] = dose: 100.0 mg/kg/injection, schedule: Q01DX001 (ip), vehicle: Klucel (hydroxypropylcellulose) (HPC)
[8] = dose: 200.0 mg/kg/injection, schedule: Q01DX001 (ip), vehicle: Klucel (hydroxypropylcellulose) (HPC)
[9] = dose: 400.0 mg/kg/injection, schedule: Q01DX001 (ip), vehicle: Klucel (hydroxypropylcellulose) (HPC)

[Cl][Pt+2][Cl].[NH-]CC1(C[NH-])CCC1
T/C (dose: 0.38 mg/kg/injection, schedule: Q01DX009 (ip), vehicle: saline): 114 % of control
T/C (dose: 0.38 mg/kg/injection, schedule: Q01DX009 (ip), vehicle: suspension in saline): 161 % of control
T/C (dose: 0.75 mg/kg/injection, schedule: Q01DX009 (ip), vehicle: suspension in saline): 215 % of control
T/C (dose: 1.5 mg/kg/injection, schedule: Q01DX005 (ip), vehicle: saline): 175 % of control
T/C (dose: 1.5 mg/kg/injection, schedule: Q01DX005 (ip), vehicle: suspension in saline): 161 % of control
T/C (dose: 1.5 mg/kg/injection, schedule: Q01DX009 (ip), vehicle: saline): 165 % of control
T/C (dose: 1.5 mg/kg/injection, schedule: Q01DX009 (ip), vehicle: suspension in saline): 247 % of control
T/C (dose: 3.0 mg/kg/injection, schedule: Q01DX005 (ip), vehicle: saline): 202 % of control
T/C (dose: 3.0 mg/kg/injection, schedule: Q01DX005 (ip), vehicle: suspension in saline): 191 % of control
T/C (dose: 3.0 mg/kg/injection, schedule: Q01DX009 (ip), vehicle: saline): 243 % of control
T/C (dose: 3.0 mg/kg/injection, schedule: Q01DX009 (ip), vehicle: suspension in saline): 159 % of control
T/C (dose: 6.0 mg/kg/injection, schedule: Q01DX005 (ip), vehicle: saline): 112 % of control
T/C (dose: 6.0 mg/kg/injection, schedule: Q01DX005 (ip), vehicle: suspension in saline): 198 % of control
T/C (dose: 6.0 mg/kg/injection, schedule: Q01DX009 (ip), vehicle: saline): 215 % of control
T/C (dose: 6.0 mg/kg/injection, schedule: Q01DX009 (ip), vehicle: suspension in saline): 119 % of control

CN(C)c1nnnn1Cc1ccccc1
T/C [1]: 97 % of control
T/C [2]: 97 % of control
T/C [3]: 106 % of control

CCOC(=O)C(NC(=O)C1(O)C(O)C2(CC)C=CCN3CCC4(c5cc(C6(C(=O)OC)CC7CN(CCc8c6[nH]c6ccccc86)CC(O)(CC)C7)c(OC)cc5N(C)C14)C32)C(C)CC (centres undefined)
T/C (dose: 1.0 mg/kg/injection, schedule: Q01DX001 (ip), vehicle: saline): 124 % of control
T/C (dose: 2.0 mg/kg/injection, schedule: Q01DX001 (ip), vehicle: saline): 155 % of control
T/C (dose: 4.0 mg/kg/injection, schedule: Q01DX001 (ip), vehicle: saline): 181 % of control
T/C (dose: 8.0 mg/kg/injection, schedule: Q01DX001 (ip), vehicle: saline): 172 % of control and 203 % of control
T/C (dose: 16.0 mg/kg/injection, schedule: Q01DX001 (ip), vehicle: saline): 191 % of control

CCCCc1nc2cc(CN3CCN(C(c4ccccc4)c4ccccc4)CC3)ccc2n1CC
T/C [4]: 95 % of control
T/C [5]: 101 % of control
T/C (dose: 25.0 mg/kg/injection, schedule: Q01DX009 (ip), vehicle: saline with Tween-80): 100 % of control

O=c1[nH][nH]c(=O)c2c1CCCC2
T/C (dose: 25.0 mg/kg/injection, schedule: Q01DX009 (ip), vehicle: saline): 107 % of control
T/C (dose: 50.0 mg/kg/injection, schedule: Q01DX009 (ip), vehicle: saline): 95 % of control
T/C (dose: 100.0 mg/kg/injection, schedule: Q01DX009 (ip), vehicle: saline): 100 % of control
T/C (dose: 200.0 mg/kg/injection, schedule: Q01DX009 (ip), vehicle: saline): 101 % of control

CCCCC[C@@H]1CCCC2C1CCC(CCCCCO)N2C(=O)OCC(Cl)(Cl)Cl (some centres undefined)
T/C [6]: 100 % of control
T/C (dose: 100.0 mg/kg/injection, schedule: Q01DX005 (ip), vehicle: saline with Tween-80): 106 % of control
T/C (dose: 200.0 mg/kg/injection, schedule: Q01DX005 (ip), vehicle: saline with Tween-80): 100 % of control

CN(C)CCCNc1c2ccccc2nc2cccc([N+](=O)[O-])c12
T/C (dose: 0.03 mg/kg/injection, schedule: Q01DX009 (ip), vehicle: water): 102 % of control and 108 % of control
T/C (dose: 0.06 mg/kg/injection, schedule: Q01DX009 (ip), vehicle: water): 107 % of control and 115 % of control (2×)
T/C (dose: 0.13 mg/kg/injection, schedule: Q01DX009 (ip), vehicle: water): 115 % of control and 120 % of control and 123 % of control
T/C (dose: 0.25 mg/kg/injection, schedule: Q01DX009 (ip), vehicle: water): 107 % of control and 96 % of control
T/C (dose: 8.0 micrograms/kg/injection, schedule: Q01DX009 (ip), vehicle: saline): 100 % of control
T/C (dose: 16.0 micrograms/kg/injection, schedule: Q01DX009 (ip), vehicle: saline): 119 % of control
T/C (dose: 32.0 micrograms/kg/injection, schedule: Q01DX009 (ip), vehicle: saline): 100 % of control
T/C (dose: 63.0 micrograms/kg/injection, schedule: Q01DX009 (ip), vehicle: saline): 123 % of control
T/C (dose: 125.0 micrograms/kg/injection, schedule: Q01DX009 (ip), vehicle: saline): 117 % of control
T/C (dose: 250.0 micrograms/kg/injection, schedule: Q01DX009 (ip), vehicle: saline): 116 % of control

O=c1oc(-c2cccc(-c3nc4sc5c(c4c(=O)o3)CCCC5)c2)nc2sc3c(c12)CCCC3
T/C [7]: 93 % of control
T/C [8]: 91 % of control
T/C [9]: 89 % of control

Cc1ccc(NCCN2CCN(CCNc3ccc(C)c4sc5ccccc5c(=O)c34)CC2)c2c(=O)c3ccccc3sc12
T/C (dose: 6.25 mg/kg/injection, schedule: Q01DX005 (ip), vehicle: saline with Tween-80): 106 % of control
T/C (dose: 12.5 mg/kg/injection, schedule: Q01DX005 (ip), vehicle: saline with Tween-80): 98 % of control
T/C (dose: 25.0 mg/kg/injection, schedule: Q01DX005 (ip), vehicle: saline with Tween-80): 105 % of control
T/C [6]: 97 % of control

COc1ccc(N(N=O)c2c(C)cc(C)cc2C)c(C(=O)O)c1
T/C [1]: 96 % of control
T/C [2]: 96 % of control
T/C [3]: 98 % of control

CC(=O)OC(OC(C)=O)c1ccc([N+](=O)[O-])c([N+](=O)[O-])c1
T/C (dose: 12.5 mg/kg/injection, schedule: Q01DX010 (ip), vehicle: saline): 104 % of control
T/C (dose: 25.0 mg/kg/injection, schedule: Q01DX010 (ip), vehicle: saline): 109 % of control
T/C (dose: 50.0 mg/kg/injection, schedule: Q01DX010 (ip), vehicle: saline): 100 % of control

O=C1C2CC=CCC2C(=O)N1SC(Cl)(Cl)Cl (centres undefined)
T/C (dose: 3.13 mg/kg/injection, schedule: Q01DX009 (ip), vehicle: saline with Tween-80): 121 % of control
T/C [4]: 121 % of control
T/C [5]: 120 % of control

CN1CC[C@]23c4c5ccc(O)c4OC2C(O)C=C[C@H]3[C@H]1C5 (some centres undefined)
T/C [7]: 103 % of control
T/C [8]: 100 % of control
T/C [9]: 110 % of control

O=C(CCc1ccc(O)cc1)ON1C(=O)CCC1=O
T/C (dose: 12.5 mg/kg/injection, schedule: Q01DX009 (ip), vehicle: Klucel (hydroxypropylcellulose) (HPC)): 108 % of control
T/C (dose: 25.0 mg/kg/injection, schedule: Q01DX009 (ip), vehicle: Klucel (hydroxypropylcellulose) (HPC)): 109 % of control
T/C (dose: 50.0 mg/kg/injection, schedule: Q01DX009 (ip), vehicle: Klucel (hydroxypropylcellulose) (HPC)): 104 % of control

Nc1nc(-c2ccccn2)cc2ccccc12
T/C (dose: 60.0 mg/kg/injection, schedule: Q01DX005 (ip), vehicle: saline with Tween-80): 105 % of control
T/C (dose: 120.0 mg/kg/injection, schedule: Q01DX005 (ip), vehicle: saline with Tween-80): 100 % of control

COc1cc2cc(c1Cl)N(C)C(=O)CC(OC(=O)C(C)N(C)C(=O)C(C)C)C1(C)OC1C(C)C1CC(O)(NC(=O)O1)C(OC)/C=C/C=C(C)C2OC (centres undefined)
T/C (dose: 4.0 micrograms/kg/injection, schedule: Q01DX009 (ip), vehicle: Klucel (hydroxypropylcellulose) (HPC)): 157 % of control and 163 % of control
T/C (dose: 4.0 micrograms/kg/injection, schedule: Q01DX009 (ip), vehicle: distilled water + alcohol): 108 % of control
T/C (dose: 8.0 micrograms/kg/injection, schedule: Q01DX009 (ip), vehicle: Klucel (hydroxypropylcellulose) (HPC)): 168 % of control
T/C (dose: 8.0 micrograms/kg/injection, schedule: Q01DX009 (ip), vehicle: distilled water + alcohol): 108 % of control and 115 % of control
T/C (dose: 15.5 micrograms/kg/injection, schedule: Q01DX009 (ip), vehicle: none): 157 % of control
T/C (dose: 16.0 micrograms/kg/injection, schedule: Q01DX009 (ip), vehicle: Klucel (hydroxypropylcellulose) (HPC)): 154 % of control
T/C (dose: 16.0 micrograms/kg/injection, schedule: Q01DX009 (ip), vehicle: distilled water + alcohol): 100 % of control and 123 % of control
T/C (dose: 31.0 micrograms/kg/injection, schedule: Q01DX009 (ip), vehicle: none): 150 % of control
T/C (dose: 32.0 micrograms/kg/injection, schedule: Q01DX009 (ip), vehicle: distilled water + alcohol): 100 % of control
T/C (dose: 64.0 micrograms/kg/injection, schedule: Q01DX009 (ip), vehicle: Klucel (hydroxypropylcellulose) (HPC)): 91 % of control
T/C (dose: 64.0 micrograms/kg/injection, schedule: Q01DX009 (ip), vehicle: distilled water + alcohol): 100 % of control
T/C (dose: 128.0 micrograms/kg/injection, schedule: Q01DX009 (ip), vehicle: distilled water + alcohol): 106 % of control
